Biological target: T1, IRAK4 (Homo sapiens, UniProt Q9NWZ3)
T1 construct: endogenous in cells; host or cells: THP-1 cells
T1 sequence (Q9NWZ3 1-460): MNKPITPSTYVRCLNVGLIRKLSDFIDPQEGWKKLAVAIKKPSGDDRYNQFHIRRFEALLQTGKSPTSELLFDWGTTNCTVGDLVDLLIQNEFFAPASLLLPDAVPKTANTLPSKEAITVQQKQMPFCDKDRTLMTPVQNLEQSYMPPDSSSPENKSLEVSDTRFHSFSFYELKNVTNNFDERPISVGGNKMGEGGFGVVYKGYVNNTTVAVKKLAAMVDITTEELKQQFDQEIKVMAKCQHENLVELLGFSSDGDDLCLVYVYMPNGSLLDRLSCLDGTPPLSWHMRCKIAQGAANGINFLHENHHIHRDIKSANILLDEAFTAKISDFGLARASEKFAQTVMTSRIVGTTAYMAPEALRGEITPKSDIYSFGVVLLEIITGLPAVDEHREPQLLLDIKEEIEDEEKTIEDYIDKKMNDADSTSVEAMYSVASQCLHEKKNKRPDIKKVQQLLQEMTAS
Assay: LVL THP1 HTRF (THP1 Homogeneous Time Resolved Fluorescence)
Assay type: cell-based
Details: THP1 cells, 18 h incubation with compound; for DC50: read-out: LVL THP1 HTRF EC50
Procedure: Cell culture media was prepared in a tissue culture hood in a sterile environment by adding 10% FBS and 1% Penicillin Streptomycin to 500 mL no phenol red RPMI 1640 media. The media was filtered through a Nalgene Bottle Top Filter and stored at 4° C.
For Homogenous Time Resolved Fluorescence (HTRF) assays, a Cisbio HTRF kit was used, which included: Lysis Buffer #1 4×, Blocking Reagent #3 100×, 20× Antibody 1 (Anti-IRAK4 d2), 20× Antibody 2 (Anti-IRAK4 k), and Detection Buffer.
The THP1 plates were prepared by the following method. For each dosing plate, a duplicate for CTG assay was prepared. Two THP-1 T-175 flasks could be used to plate one 384 well plate. The cells were collected from two T-175 flasks into 200 mL centrifuge tubes and spun down at 1200 rpm for 10 min. The supernatant was removed completely and cells were resuspended in 7.5 mL cell culture media. To 5 μL of the cell suspension was added 25 μL of media and 30 μL of Trypan Blue stain. The cells were counted using countess (automated cell counter, Thermo Fisher Scientific) twice and the viability and live cell count was recorded. The actual cell count was […] the live cell count. Based on the count, a cell suspension was prepared in colorless RPMI media for a final concentration of 7.5e6 cells/mL. Using Standard cassette multidrop combi, 20 μL of the 7.5e6 cells/mL cell stock was added to entire 384 well plate but for top half of column 1 (negative control) The multidrop combi was always primed to achieve a steady flow and washed after use with 20 mL de-ionized water followed by 20 mL alcohol. The cells were incubated in 5% CO2 incubator at 37° C.
Dosing was conducted using the following method. To dose assay plates and CTG plate was added 20 nL of compounds in DMSO using Echo (Beckman Coulter), and the plates were incubated at 37° C. for 18 h. The compound plates were spun at 1200 rpm for 1 min before dosing. The compound plate was sealed and properly stored during incubation.
After dosing, an HTRF assay was conducted using the following method. The treatment plates (IRAK4_HTRF) were centrifuged at 600 g for 10 min. Using CyBio Felix, Automated liquid handler (Analytikjena), 13 μL cell culture media was removed. To all columns, 7.5 μL lysis buffer was added, and an additional 7.5 μL of lysis buffer was added to column 1(top half, negative control). The plate was incubated on a shaker at room temperature for 2 h. The plate was spun down at 600 g for 5 min. Custom 20×IRAK4 Antibody obtained from CISBIO Anti-IRAK4-d2 (acceptor Ab) and Anti-IRAK4-K (donor Ab) were diluted to 1× antibody mix Using a multichannel repeater, 4 μL of 1× antibody mix was added to each wellThe plate was spun down at 600 g for 5 min and incubated in the dark at room temperature for 18 h The next day (after 18 hrs), HTRF assay plate was spun down at 600 g for 5 min and read at 665/615 nm using a Envision plate reader.

Row | LVL THP1 HTRF YMIN | DC50 | SMILES
1 | 7.7% | 11.3 nM | C[C@H](C#N)Nc1cc(-n2ncc3cc(C#N)cnc32)ncc1-n1cc([C@H]2CC[C@H](CCN3CCN(c4ccc([C@@]5(C)CCC(=O)NC5=O)nc4)[C@@H](C)C3)CC2)nn1 (single isomer, unassigned) [P-289]
2 | 33.6% | 252 nM | C[C@H](C#N)Nc1cc(-n2ncc3cc(C#N)cnc32)ncc1-n1cc([C@H]2CC[C@H](CCN3CCN(c4ccc([C@@]5(C)CCC(=O)NC5=O)nc4)[C@@H](C)C3)CC2)nn1 (single isomer, unassigned) [P-290]
3 | −4.4% | 57.7 nM | C[C@H](C#N)Nc1cc(-n2ncc3cc(C#N)cnc32)ncc1-n1cc([C@H]2CC[C@](O)(CCN3CCN(c4ccc([C@@]5(C)CCC(=O)NC5=O)cc4)[C@@H](C)C3)CC2)nn1 (single isomer, unassigned) [P-291]
4 | 7.2% | 32 nM | C[C@H](C#N)Nc1cc(-n2ncc3cc(C#N)cnc32)ncc1-n1cc([C@H]2CC[C@](O)(CCN3CCN(c4ccc([C@@]5(C)CCC(=O)NC5=O)cc4)CC3)CC2)nn1 (single isomer, unassigned) [P-292]
5 | 10.5% | 65.8 nM | C[C@H](C#N)Nc1cc(-n2ncc3cc(C#N)cnc32)ncc1-n1cc([C@H]2CC[C@](O)(CCN3CCN(c4ccc([C@@]5(C)CCC(=O)NC5=O)cn4)CC3)CC2)nn1 (single isomer, unassigned) [P-293]
6 | 76.0% | 1230 nM | C[C@H](C#N)Nc1cc(-n2ncc3cc(C#N)cnc32)ncc1-n1cc([C@H]2CC[C@](O)(CCN3CCN(c4ccc([C@@]5(C)CCC(=O)NC5=O)nc4)CC3)CC2)nn1 (single isomer, unassigned) [P-294]
7 | 39.8% | 350 nM | C[C@H](C#N)Nc1cc(-n2ncc3cc(C#N)cnc32)ncc1-n1cc([C@H]2CC[C@](O)(CCN3CCN(c4ccc([C@@]5(C)CCC(=O)NC5=O)nc4)CC3)CC2)nn1 (single isomer, unassigned) [P-295]
8 | 3.3% | 10.5 nM | COc1cc([C@@]2(C)CCC(=O)NC2=O)ccc1N1CCN(CC[C@H]2CC[C@H](c3cn(-c4cnc(-n5ncc6cc(C#N)c(N)nc65)cc4N[C@H](C)C#N)nn3)CC2)C[C@@H]1C (single isomer, unassigned) [P-302]
9 | 90.1% | 111 nM | COc1cc([C@@]2(C)CCC(=O)NC2=O)ccc1N1CCN(CC[C@H]2CC[C@H](c3cn(-c4cnc(-n5ncc6cc(C#N)c(N)nc65)cc4N[C@H](C)C#N)nn3)CC2)C[C@@H]1C (single isomer, unassigned) [P-303]
10 | 5.0% | 11.9 nM | COc1cc([C@@]2(C)CCC(=O)NC2=O)ccc1N1CCN(CC[C@H]2CC[C@H](c3cn(-c4cnc(-n5ncc6cc(C#N)c(N)nc65)cc4N[C@H](C)C#N)nn3)CC2)C[C@H]1C (single isomer, unassigned) [P-304]
11 | 84.3% | 0.2 nM | COc1cc([C@@]2(C)CCC(=O)NC2=O)ccc1N1CCN(CC[C@H]2CC[C@H](c3cn(-c4cnc(-n5ncc6cc(C#N)c(N)nc65)cc4N[C@H](C)C#N)nn3)CC2)C[C@H]1C (single isomer, unassigned) [P-305]
12 | 1.5% | 3.7 nM | C[C@H](C#N)Nc1cc(-n2ncc3cc(C#N)c(N)nc32)ncc1-n1cc([C@H]2CC[C@H](CCN3CCN(c4ccc([C@@]5(C)CCC(=O)NC5=O)nc4)CC3)CC2)nn1 (single isomer, unassigned) [P-306]
13 | 86.3% | 6.6 nM | C[C@H](C#N)Nc1cc(-n2ncc3cc(C#N)c(N)nc32)ncc1-n1cc([C@H]2CC[C@H](CCN3CCN(c4ccc([C@@]5(C)CCC(=O)NC5=O)nc4)CC3)CC2)nn1 (single isomer, unassigned) [P-307]
14 | 3.5% | 2.1 nM | C[C@H](C#N)Nc1cc(-n2ncc3cc(C#N)c(N)nc32)ncc1-n1cc([C@H]2CC[C@H](CCN3CCN(c4ccc([C@@]5(C)CCC(=O)NC5=O)nn4)CC3)CC2)nn1 (single isomer, unassigned) [P-308]
15 | 96.8% | 1000 nM | C[C@H](C#N)Nc1cc(-n2ncc3cc(C#N)c(N)nc32)ncc1-n1cc([C@H]2CC[C@H](CCN3CCN(c4ccc([C@@]5(C)CCC(=O)NC5=O)nn4)CC3)CC2)nn1 (single isomer, unassigned) [P-309]
16 | 7.9% | 13.2 nM | C[C@H](C#N)Nc1cc(-n2ncc3cc(C#N)cnc32)ncc1-n1cc([C@H]2CC[C@H](CCN3CC[C@H]4[C@@H]3CCN4c3ccc([C@@]4(C)CCC(=O)NC4=O)cn3)CC2)nn1 (single isomer, unassigned) [P-312]
17 | 44.9% | 244 nM | C[C@H](C#N)Nc1cc(-n2ncc3cc(C#N)cnc32)ncc1-n1cc([C@H]2CC[C@H](CCN3CC[C@H]4[C@@H]3CCN4c3ccc([C@@]4(C)CCC(=O)NC4=O)cn3)CC2)nn1 (single isomer, unassigned) [P-313]
18 | 6.5% | 21.8 nM | C[C@H](C#N)Nc1cc(-n2ncc3cc(C#N)cnc32)ncc1-n1cc([C@H]2CC[C@H](CCN3CC[C@@H](c4ccc([C@@]5(C)CCC(=O)NC5=O)cc4)C(F)(F)C3)CC2)nn1 (single isomer, unassigned) [P-314]
19 | 2.0% | 1.3 nM | C[C@H](C#N)Nc1cc(-n2ncc3cc(C#N)c(N)nc32)ncc1-n1cc([C@H]2CC[C@H](CCN3CCC(c4ccc([C@@]5(F)CCC(=O)NC5=O)cc4)CC3)CC2)nn1 (single isomer, unassigned) [P-317]
20 | 47.8% | 374 nM | C[C@H](C#N)Nc1cc(-n2ncc3cc(C#N)c(N)nc32)ncc1-n1cc([C@H]2CC[C@H](CCN3CCC(c4ccc([C@@]5(F)CCC(=O)NC5=O)cc4)CC3)CC2)nn1 (single isomer, unassigned) [P-318]
21 | 87.9% | 1000 nM | C[C@H](C#N)Nc1cc(-n2ncc3cc(C#N)c(N4C[C@H]5C[C@@H]4CO5)nc32)ncc1-n1cc([C@H]2CC[C@H](CCN3CCC(c4ccc([C@@]5(F)CCC(=O)NC5=O)cc4)CC3)CC2)nn1 (single isomer, unassigned) [P-319]
22 | 12.0% | 96.7 nM | C[C@H](C#N)Nc1cc(-n2ncc3cc(C#N)cnc32)ncc1-n1cc([C@H]2CC[C@H](CCN3C[C@@H]4CN(c5ccc(N6CCC(=O)NC6=O)cc5)C[C@@H]4C3)CC2)nn1 (single isomer, unassigned) [P-323]
23 | 1.6% | 3.8 nM | C[C@H](C#N)Nc1cc(-n2ncc3cc(C#N)cnc32)ncc1-n1cc([C@H]2CC[C@H](CCN3CC[C@H]4[C@@H]3CCN4c3ccc(C4CCC(=O)NC4=O)cc3)CC2)nn1 (single isomer, unassigned) [P-325]
24 | 0.3% | 4 nM | C[C@H](C#N)Nc1cc(-n2ncc3cc(C#N)cnc32)ncc1-n1cc([C@H]2CC[C@H](CCN3CC[C@H](c4ccc([C@@]5(F)CCC(=O)NC5=O)cc4)C[C@H]3C)CC2)nn1 (single isomer, unassigned) [P-326]
25 | 2.2% | 2.8 nM | C[C@H](C#N)Nc1cc(-n2ncc3cc(C#N)cnc32)ncc1-n1cc([C@H]2CC[C@H](CCN3CC[C@H]4[C@@H]3CCN4c3ccc(C4CCC(=O)NC4=O)cc3)CC2)nn1 (single isomer, unassigned) [P-327]

— patent US20240109881A1, “Heteroaryl Compounds as Ligand Directed Degraders of IRAK4” (Bristol-Myers Squibb Company, priority 2022, published 2024)
